Test results as given in ChEMBL document CHEMBL1201862, “PubChem BioAssay data set” (2004).
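Values below derive from 48-hour exposures of cells grown in 96-well plates, with endpoints linearly interpolated between the two concentrations bracketing the appropriate inhibition level. Abbreviation: GI50, concentration required for 50% inhibition of growth.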 The source made the active and inactive calls. Cut-off read from the data, not from the text of the source: active = GI50 up to about 1.1 µM and inactive = higher.

Columns and labels:
Assay in all cases: NCI-60 cell line screen, 48 h
[1] = test system: SF-539
[2] = test system: NCI-H23
[3] = test system: Malme-3M
[4] = test system: ACHN
[5] = test system: SW-620
[6] = test system: HL-60
[7] = test system: RPMI-8226
[8] = test system: MOLT-4
[9] = test system: SNB-19
[10] = test system: SK-MEL-2
[11] = test system: 786-0
[12] = test system: SF-295
[13] = test system: SNB-75
[14] = test system: HCT-116
[15] = test system: MDA-MB-435
[16] = test system: CAKI-1
[17] = test system: HOP-92
[18] = test system: DU-145
[19] = test system: SK-MEL-28
[20] = test system: LOX IMVI

Measured: GI50

C1OCN2c3nonc3N3COCN4c5nonc5N1C2C43 (centres undefined)
inactive: [1] > 100 µM | [2] > 100 µM | [3] > 100 µM | [4] > 100 µM | [5] > 100 µM | [6] 83.4 µM | [7] > 100 µM | [8] 50.1 µM | [9] > 100 µM | [10] > 100 µM | [11] > 100 µM | [12] > 100 µM | [13] > 100 µM | [14] 57.4 µM | [15] > 100 µM | [16] > 100 µM | [17] > 100 µM | [18] > 100 µM | [19] > 100 µM

COc1ccc2oc(=O)c(-c3csc(C)n3)cc2c1
inactive: [1] 22.2 µM | [4] 44.4 µM | [5] > 100 µM | [20] > 100 µM | [6] > 100 µM | [7] > 100 µM | [8] > 100 µM | [9] 28.8 µM | [10] 41.4 µM | [11] 54.2 µM | [12] 18.6 µM | [13] 30.5 µM | [14] 58.3 µM | [15] > 100 µM | [16] > 100 µM | [17] 19.5 µM | [18] > 100 µM | [19] > 100 µM

COc1ccc(/C=C2/CCS(=O)(=O)c3ccc(C)cc3C2=O)cc1OC
inactive: [1] 14.6 µM | [2] 12.5 µM | [4] 12.9 µM | [5] 22.8 µM | [20] 8.11 µM | [6] 10.4 µM | [7] 11.7 µM | [8] 12.1 µM | [9] 14.1 µM | [10] 20 µM | [11] 11.4 µM | [12] 14.7 µM | [13] 12 µM | [14] 10.2 µM | [15] 12.5 µM | [16] 17.2 µM | [17] 2.36 µM | [18] 3.73 µM | [19] 17.2 µM

CCN(CC)CCNc1c(OC)cc(C)c2sc3ccccc3c(=O)c12
inactive: [1] 10.6 µM | [2] 14.5 µM | [3] 2.13 µM | [4] 4.46 µM | [5] 5.35 µM | [6] 5.45 µM | [7] 1.3 µM | [8] 2.31 µM | [9] 12.7 µM | [10] 12.6 µM | [11] 7.53 µM | [12] 3.85 µM | [13] 12.9 µM | [14] 4.66 µM | [15] 3.08 µM | [16] 7.96 µM | [17] 16.9 µM | [18] 11.9 µM | [19] 1.92 µM

CO[C@]12C[C@@H](CNC(=O)c3cc(Br)c[nH]3)O[C@H]1NC(=O)N2
inactive: [1] > 100 µM | [2] > 100 µM | [3] > 100 µM | [4] > 100 µM | [5] > 100 µM | [6] > 100 µM | [7] > 100 µM | [8] > 100 µM | [9] > 100 µM | [10] > 100 µM | [11] > 100 µM | [12] > 100 µM | [13] > 100 µM | [14] > 100 µM | [15] > 100 µM | [16] > 100 µM | [17] > 100 µM | [18] > 100 µM | [19] > 100 µM

C/C(Cl)=N/OC(=O)Nc1ccc(S(N)(=O)=O)c(C)c1
inactive: [2] 18.1 µM | [3] 2.08 µM | [4] 2.15 µM | [5] 2.38 µM | [20] 2.27 µM | [6] 1.42 µM | [7] 1.95 µM | [8] 1.5 µM | [9] 18.1 µM | [10] 18.6 µM | [11] 2.03 µM | [12] 21 µM | [13] 19 µM | [14] 12 µM | [15] 15.1 µM | [16] 1.83 µM | [17] 2 µM | [18] 16.6 µM | [19] 13.6 µM

C[C@@H]1C[C@](O)([C@@H](C)Cl)C(=O)O[C@@H]2CCN3CC=C(COC(=O)[C@]1(C)O)[C@H]23
inactive: [1] > 100 µM | [2] > 10 µM | [4] > 10 µM | [5] > 100 µM | [20] > 100 µM | [6] > 100 µM | [7] > 100 µM | [9] > 10 µM | [10] > 100 µM | [11] > 100 µM | [12] > 100 µM | [13] > 100 µM | [14] > 100 µM | [15] > 100 µM | [16] > 100 µM | [17] > 100 µM | [18] > 100 µM | [19] > 100 µM

COC(=O)[C@H](Cc1c[nH]c2ccccc12)NC(=O)OCC1OC(n2cc(C)c(=O)[nH]c2=O)CC1N=[N+]=[N-] (some centres undefined)
inactive: [2] 76 µM | [3] > 100 µM | [4] > 100 µM | [5] > 100 µM | [20] 98.6 µM | [6] > 100 µM | [7] > 100 µM | [8] 33.6 µM | [9] > 100 µM | [10] > 100 µM | [11] > 100 µM | [12] > 100 µM | [13] 84.5 µM | [14] > 100 µM | [15] > 100 µM | [16] > 100 µM | [17] > 100 µM | [18] > 100 µM
